Data taken from patent US20210268030A1, “FIBROADIPOGENIC PROGENITOR-DERIVED EXOSOMES FOR REGENERATION OF DYSTROPHIC MUSCLES” (EXOFIX S.R.L., priority 2018, published 2021).

Assays:
Notch1 = Notch1 transcripts in MuSCs isolated from treated mdx mice; format: in vivo; settings: MuSCs isolated from mdx mice treated with TSA
Description: (§1) Animals were used at the specified age and treated for the indicated periods with daily intra peritoneal injections of Trichostatin A, TSA (0.6 mg/kg/day; #T8552, Sigma), dissolved in phospate-saline solution or in phospate-saline alone as vehicle control (CTR). Muscle injury was performed by intramuscular injection in Tibliais Anterior (TA) of Cardiotoxin—CTX− (10 μM, 10 mg/mL) (#L8102, Lotaxan Valence, France, http://www.latoxan.com), 3 days before mice sacrifice.
(§2) For RNA-sequencing sample preparation, MuSCs and FAPs were freshly isolated by FACS from 6 C57BI6 mdx male mice 8-weeks old treated or not with TSA for 15 days. RNA was collected using Trizol) reagent (#T9424, Sigma). About 100 ng/μL of total RNA was sent in duplicate to IGA (Istituto di Genomica Applicata, Udine) for RNA sequencing using Illumina TruSeq Stranded Total RNA kit Ribo-Zero GOLD on Illumina Hiseq2500 platform.
(§3) To investigate this hypothesis, we evaluated the effect of FAP-derived exosomes from HDACi-treated or control-treated mdx mice on MuSCs within single fibres isolated from WT mice. Freshly isolated single muscle fibres from tibialis anterior, extensor digitorum longus, gastrocnemius and soleus of C57BL6J mice were incubated with FAP-derived exosomes or whole conditioned media, and their effect on MuSCs was evaluated by monitoring the expression of Pax7, MyoD and DNA synthesis (EdU incorporation). […]

Notch3 = Notch3 transcripts in MuSCs isolated from treated mdx mice; format: in vivo; settings: MuSCs isolated from mdx mice treated with TSA
Description: as §1, §2, §3

miR-206 [1] = test: qPCR of exosomal miR-206 from dissociated tibialis anterior muscles; format: in vivo, mdx mice; settings: TSA-treated mdx muscle compared to untreated control
Description: Exosomes were purified from tibialis anterior gently dissociated in serum-free DMEM (24 h). Cell debris and organelles were eliminated by centrifugation at 2,000 g for 20 min and exosomes were isolated using TEIR.
For microRNA validation, Total exosomal RNA was extracted with Total Exosome RNA Protein Isolation Kit (#4478545, Invitrogen by Thermo Fisher Scientific) and was retro-transcribed using the Qiagen reverse transcription kit (miScript II RT Kit, #218161, Qiagen) and pre-amplified using (miScript PreAMP PCR Kit, #331451, Qiagen).
All the conditions are provided in the manufacturer protocol.
(§4) Of note, transgenic miR-206 upregulation has been exploited as tool for the treatment of DMD and other muscular disorders (Liu et al., 2012; Williams et al., 2009; Fry et al., 2017). […] The same pattern could be observed in mdx mice, in which an abundant miR-206 signal was detected in the interstitium of tibialis anterior muscles, overlapping with the immunofluorescence staining of the FAP's marker Sca-1 (FIG. 3H). […] We performed a quantitative assessment of exosomal miR-206, by isolating whole tibialis anterior (TA) muscles from TSA-treated mdx muscle or untreated control mdx mice, followed by gentle dissociation and exosome isolation.

miR-206 [2] = test: miR-206 in situ hybridization of tibialis anterior sections; format: in vivo; settings: young mdx mice (1.5 months of age)
Description: as §1, with “sacrifice. […]” for “sacrifice.”
as §4

Q: With `CC(/C=C/C(=O)NO)=C\[C@@H](C)C(=O)c1ccc(N(C)C)cc1` [TSA, Trichostatin A] as the molecule, how does the Notch1 transcripts (Notch1) read?
A: reduced

Q: And the Notch3 transcripts (Notch3)?
A: reduced

Q: And the “increase of miR-206” value (miR-206 [1])?
A: ~7 fold

Q: And the “amount of interstitial miR-206 signal associated with Sca-1 staining” value (miR-206 [2])?
A: increased
